Results: US5254569A, “(Amidomethyl)nitrogen heterocyclic analgesics” (The Du Pont Merck Pharmaceutical Company, priority 1991, dated 1993)
Counter-ions that a name gives are not always drawn. Like-named read-outs stand apart in the source and are kept apart here.

How the values were obtained:
[1] = phenylquinone writhing test (PQW), analgesic activity in mice; format: in vivo, male white mice (CFl); conditions: for ED50: Mus musculus
mu opioid receptor = test: opioid receptor binding, mu ([3H]naloxone); set-up: species or system guinea pig (method, b1124); rat (Table 4 title)
kappa opioid receptor = target: T1, kappa opioid receptor (Cavia porcellus, UniProt P41144); test: opioid receptor binding, kappa ((-)-[3H]ethylketocycloazocine); set-up: species or system guinea pig (method, b1124); rat (Table 4 title)
T1 construct: Whole brains were homogenized (20 sec) in 10 vol (wt/vol) of ice-cold 0.34 M sucrose; tissue Charles River (animals); host or cells: guinea pig whole-brain membranes
T1 sequence (P41144 whole entry): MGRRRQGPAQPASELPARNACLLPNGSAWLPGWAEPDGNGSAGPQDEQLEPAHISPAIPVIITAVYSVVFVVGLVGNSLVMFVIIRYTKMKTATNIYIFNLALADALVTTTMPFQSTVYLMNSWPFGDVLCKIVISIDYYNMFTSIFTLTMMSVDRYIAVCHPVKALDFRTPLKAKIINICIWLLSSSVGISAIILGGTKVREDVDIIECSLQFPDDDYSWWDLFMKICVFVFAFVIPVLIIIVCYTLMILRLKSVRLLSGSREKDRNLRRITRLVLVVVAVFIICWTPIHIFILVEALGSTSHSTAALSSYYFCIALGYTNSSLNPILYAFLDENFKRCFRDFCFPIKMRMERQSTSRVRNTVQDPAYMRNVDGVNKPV

[2] = mouse, in vivo; cited from earlier work
[3] = 0.5 nM [3H]naloxone, brain membranes, apparent Ki

COc1cccc(C(C2CCCCN2C)N(C)C(=O)Cc2ccc(Cl)c(Cl)c2)c1 (stereo not shown) [Example 5, benzeneacetamide,3,4-dichloro-N-[1-(3-methoxyphenyl)-1-(1-methyl-2-piperidinyl)methyl]-N-methyl-, hydrochloride]
ED50 ([1]; po): 38 mg/kg
ED50 ([1]; sc): 1.3 mg/kg
Ki (mu opioid receptor): 3470 nM

CN1CCCC[C@@H]1[C@@H](c1ccccc1)N(C)C(=O)Cc1ccc(Cl)c(Cl)c1 [Example 107]
ED50 ([1]; po): 30 mg/kg
ED50 ([1]; sc): 13 mg/kg
Ki (mu opioid receptor): 253 nM

CN1CCCCC1C(c1ccccc1)N(C)C(=O)Cc1ccc(Cl)cc1Cl (stereo not shown) [Example 13]
ED50 ([1]; po): 24 mg/kg
ED50 ([1]; sc): 8.1 mg/kg
Ki (mu opioid receptor): 625 nM

CN1CCCC[C@H]1[C@@H](c1ccccc1)N(C)C(=O)Cc1ccc(Cl)c(Cl)c1 [Example 109]
ED50 ([1]; po): > 81 mg/kg
ED50 ([1]; sc): > 81 mg/kg
Ki (mu opioid receptor): 3860 nM

COc1cccc([C@@H]([C@@H]2CCCCN2C)N(C)C(=O)Cc2ccc(Cl)c(Cl)c2)c1 [Example 120]
ED50 ([1]; po): 19 mg/kg
ED50 ([1]; sc): 1.6 mg/kg
Ki (mu opioid receptor): 633 nM

CN1CCCC[C@H]1[C@H](c1cccc(O)c1)N(C)C(=O)COc1ccc(Cl)c(Cl)c1 [Example 144]
ED50 ([1]; po): 16 mg/kg
ED50 ([1]; sc): 4.2 mg/kg
Ki (mu opioid receptor; [3]): 27 nM

CN1CCCC[C@H]1[C@@H](c1ccccc1)N(C)C(=O)COc1ccc(Cl)c(Cl)c1 [Example 113]
ED50 ([1]; po): > 81 mg/kg
ED50 ([1]; sc): 67 mg/kg
Ki (mu opioid receptor): > 10000 nM

CN1CCCCC1C(c1ccccc1)N(C)C(=O)Cc1c(F)c(F)c(F)c(F)c1F (stereo not shown) [Example 10]
ED50 ([1]; po): 47 mg/kg
ED50 ([1]; sc): 16 mg/kg
Ki (mu opioid receptor): 3200 nM

CN1CCCC[C@H]1[C@H](c1ccccc1)N(C)C(=O)Cc1cccc2occc12 [Example 114]
ED50 ([1]; po): 8.1 mg/kg
ED50 ([1]; sc): 0.57 mg/kg
Ki (mu opioid receptor): 250 nM

CN1CCCCC1C(c1ccccc1)N(C)C(=O)Cc1ccc(Cl)c(Cl)c1 (stereo not shown) [Example 9]
MOUSE PQW ED50 ([1]; p.o.): 16. mg/kg
MOUSE PQW ED50 ([1]; s.c.): 0.72 mg/kg
Ki (mu opioid receptor): 322 nM

COc1ccc(C(C2CCCCN2C)N(C)C(=O)Cc2ccc(Cl)c(Cl)c2)cc1 (stereo not shown) [Example 7, Benzeneacetamide, 3,4-dichloro-N-((1-(4-methoxyphenyl)-1-(1-methyl-2-piperidinylmethyl))-N-methyl-, hydrochloride]
ED50 ([1]; po): > 81 mg/kg
ED50 ([1]; sc): > 81 mg/kg
Ki (mu opioid receptor; [3]): 5670 nM
Ki (kappa opioid receptor): 4590 nM

CC(C1CCCCN1C)N(C)C(=O)Cc1ccc(Cl)c(Cl)c1 (stereo not shown) [Example 4, benzeneacetamide,3,4-dichloro-N-methyl-N-[1-(1-methyl-2-piperidinyl)ethyl]-, hydrochloride]
ED50 ([1]; po): > 81 mg/kg
ED50 ([1]; sc): 67 mg/kg
Ki (mu opioid receptor; [3]): 28500 nM
Ki (kappa opioid receptor): 1280 nM

CN1CCCC[C@@H]1[C@H](c1ccccc1)N(C)C(=O)COc1ccc(Cl)c(Cl)c1 [Example 112]
ED50 ([1]; po): > 81 mg/kg
ED50 ([1]; sc): 12 mg/kg
Ki (mu opioid receptor): 4620 nM

CN1CC[C@]23c4c5ccc(O)c4O[C@H]2[C@@H](O)C=C[C@H]3[C@H]1C5 [Morphine]
sedation in mice [2]: do not produce sedation

CN1CCCC[C@H]1[C@H](c1ccc(F)cc1)N(C)C(=O)Cc1ccc(Cl)c(Cl)c1 [Example 118]
ED50 ([1]; po): 19 mg/kg
ED50 ([1]; sc): 1.7 mg/kg
Ki (mu opioid receptor): 1060 nM

CN(C(=O)Cc1ccc(Cl)c(Cl)c1)[C@@H](c1ccccc1)[C@@H]1CCCCN1CC1CC1 [Example 179]
ED50 ([1]; po): 10 mg/kg
ED50 ([1]; sc): > 81 mg/kg
Ki (mu opioid receptor; [3]): 604 nM
Ki (kappa opioid receptor): 397 nM

COc1cccc([C@@H]([C@@H]2CCCCN2C)N(C)C(=O)COc2ccc(Cl)c(Cl)c2)c1 [Example 140]
ED50 ([1]; po): 5.2 mg/kg
ED50 ([1]; sc): 0.29 mg/kg
Ki (mu opioid receptor): 104 nM

CN1CCCCC1C(c1ccccc1)N(C)C(=O)COc1ccc(Cl)c(Cl)c1 (stereo not shown) [Example 14]
ED50 ([1]; po): 1.2 mg/kg
ED50 ([1]; sc): 0.11 mg/kg
Ki (mu opioid receptor; [3]): 58 nM

CN1CCCC[C@H]1[C@H](c1ccc(F)cc1)N(C)C(=O)COc1ccc(Cl)c(Cl)c1 [Example 136]
ED50 ([1]; po): 1.7 mg/kg
ED50 ([1]; sc): 0.24 mg/kg
Ki (mu opioid receptor; [3]): 54 nM

CCN(C(=O)Cc1ccc(Cl)c(Cl)c1)C(c1ccccc1)C1CCCCN1C (stereo not shown) [Example 12]
MOUSE PQW ED50 ([1]; p.o.): 24. mg/kg
MOUSE PQW ED50 ([1]; s.c.): 1.7 mg/kg
Ki (mu opioid receptor): 3320 nM

CCN(C(=O)Cc1ccc(Cl)c(Cl)c1)C(c1ccccc1)C1CCCCN1C (stereo not shown) [Example 11]
ED50 ([1]; po): 38 mg/kg
MOUSE PQW ED50 ([1]; s.c.): 30.0 mg/kg
Ki (mu opioid receptor): 660 nM

CN1CCCC[C@@H]1[C@@H](c1ccccc1)N(C)C(=O)COc1ccc(Cl)c(Cl)c1 [Example 111]
ED50 ([1]; po): 19 mg/kg
ED50 ([1]; sc): 1.3 mg/kg
Ki (mu opioid receptor): 195 nM

CN1CCCCC1C(c1ccccc1)N(C)C(=O)Cc1ccc(Cl)c(Cl)c1 (stereo not shown) [Example 2, benzeneacetamide, 3,4-dichloro-N-methyl-N-[1-(1-methyl-2-piperidinyl)phenyl-methyl], hydrochloride]
ED50 ([1]; po): 10 mg/kg
MOUSE PQW ED50 ([1]; s.c., hydrochloride): 1.7 mg/kg
Ki (mu opioid receptor; hydrochloride): 270 nM

CN1CCCCC1C(c1cccc(O)c1)N(C)C(=O)Cc1ccc(Cl)c(Cl)c1 (stereo not shown) [Example 6, benzeneacetamide,3,4-dichloro-N-[1-(3-hydroxyphenyl)-1-(1-methyl-2-piperidinyl)methyl]-N-methyl-, hydrobromide]
ED50 ([1]; po): > 81 mg/kg
ED50 ([1]; sc): 18 mg/kg
Ki (mu opioid receptor): 438 nM

CN(C(=O)Cc1ccc(Cl)c(Cl)c1)C(c1ccccc1)C1CCCCN1CC1CC1 (stereo not shown) [Example 3]
ED50 ([1]; po): 47 mg/kg
ED50 ([1]; sc): > 81 mg/kg
Ki (mu opioid receptor; [3]): 957 nM
Ki (kappa opioid receptor): 530 nM

C=CCN1CCCC[C@H]1[C@H](c1ccccc1)N(C)C(=O)Cc1ccc(Cl)c(Cl)c1 [Example 180]
ED50 ([1]; po): 24 mg/kg
ED50 ([1]; sc): > 81 mg/kg
Ki (mu opioid receptor): 530 nM

CN1CCCC[C@H]1[C@H](c1cccc(O)c1)N(C)C(=O)Cc1ccc(Cl)c(Cl)c1 [Example 122]
ED50 ([1]; po): 47 mg/kg
ED50 ([1]; sc): 36 mg/kg
Ki (mu opioid receptor): 209 nM

CN1CCCCC1C(c1ccc(O)cc1)N(C)C(=O)Cc1ccc(Cl)c(Cl)c1 (stereo not shown) [Example 8]
ED50 ([1]; po): > 81 mg/kg
ED50 ([1]; sc): > 81 mg/kg
Ki (mu opioid receptor; [3]): 11400 nM
Ki (kappa opioid receptor): 2590 nM

CN1CCCC[C@H]1[C@H](c1ccccc1)N(C)C(=O)COc1ccc(Cl)c(Cl)c1 [Example 110]
ED50 ([1]; po): 0.89 mg/kg
ED50 ([1]; sc): 0.078 mg/kg
Ki (mu opioid receptor; [3]): 8 nM

CN1CCCC[C@H]1[C@H](c1ccccc1)N(C)C(=O)Cc1ccc(Cl)c(Cl)c1 [Example 106, (+)-[2S-(R*,R*)]-(3,4-dichlorophenyl)-N-methyl-N-[1-(1-methyl-2-piperidinyl)phenylmethyl]acetamide hydrochloride]
ED50 ([1]; po): 8.1 mg/kg
ED50 ([1]; sc): 0.37 mg/kg
Ki (mu opioid receptor): 414 nM

CN1CCCCC1C(Cc1ccccc1)N(C)C(=O)Cc1ccc(Cl)c(Cl)c1 (stereo not shown) [Example 47]
ED50 ([1]; po): > 81 mg/kg
ED50 ([1]; sc): > 81 mg/kg
Ki (mu opioid receptor; [3]): 2560 nM
Ki (kappa opioid receptor): 3990 nM
